Assay [1] is described as follows: Peptide-Texas Red binding in solution, excitation and emission spectra. Particulars: for changes in peak excitation or emission: concentrated peptide with 50 nM Texas Red. The protocol:
FIGS. 5A and 5B. Peptide—Texas Red binding. Excitation and emission spectra. Peptides at the noted concentrations were incubated with Texas Red (50 nM), or without, in 0.6 ml of TBS for 1 hr at room temperature (RT). Samples were scanned on a spectrofluorimeter (SPEX Fluoromax (Jobin Yvon-SPEX Instruments Co.)). Excitation and excitation/emission peak shifts for PepTR401(10 μM)/Texas Red and PepTRS311 (10 μM)/Texas Red complexes, respectively (A), were reproducible in three independent experiments. The results of a single experiment are presented.
The above test only checks for bound dye that remains fluorescent at the wavelengths tested. Binding of fluorophore dyes to specific peptides might result in changes in the fluorescence spectra of bound dye versus the spectra of free dye. Or, one might observe an increase or quenching of fluorescence. We mixed concentrated peptide with 50 nM of the corresponding dye in solution and determined the excitation and emission spectra of the resulting mixture.
We attempted with these findings to obtain an affinity measurement for the higher affinity TRS311 peptide. Peptides in different concentrations (1.3-20 μM) were incubated with Texas Red (50 nM) in 0.6 ml of TBS buffer for 1 hr at RT. Excitation and emission spectra of samples were obtained by using spectrofluorimeter SPEX Fluoromax (Jobin Yvon-SPEX Instruments Co.) and DataMax software package. Peak positions were automatically calculated by software. List mode data was saved for other analyses.

Assay [2] is described as follows: Dye binding to peptide-coated cobalt Sepharose beads, fluorescence microscopy. The note with it: 0.5 μM Texas Red in TBS, 1 hr, RT. The protocol: FIG. 6. Texas Red-specific peptide PepTR401 (Panel A), PepTRS311 (Panel B), PepTR406 (Panel C) and nonspecific PepControl (Panel D) (see peptide sequences in Table 4) were bound via His6 tag to cobalt ion-containing Sepharose beads. The peptide coated beats were washed and incubated with 0.5 micromolar Texas Red in TBS for 1 hour at room temperature followed by several washings of beads in order to remove unbound dye. Fluorescent and nonflourescent control beads were photographed on fluorescent microscope Axiophot (Zeiss) using Rhodamine Red/Texas Red filter with the same time exposure for every sample. All binding experiments were accomplished in three parallels and results of a single experiments are shown.
Peptides were bound to cobalt ion-coated Sepharose beads and the resultant peptide-coated beads were incubated with corresponding fluorophore dyes, washed, and visualized for dye binding. The same amounts of Texas Red-specific peptides PepTR401, PepTRS311, PepTR406 as well as nonspecific peptide PepControl (see Table 4) were bound via His6 tag to the TALON Metal Affinity Resin (Clontech) in TBS buffer essentially as described by manufacturer's protocol. Beads (5 μl) were washed twice with 0.5 ml TBS to remove unbound peptide and incubated with 0.5 μM Texas Red in 40 μl of TBS buffer for 1 hr at RT. Finally, the beads were washed three times with 0.3 ml TBS to remove unbound dye. Fluorescent and nonfluorescent control beads were photographed with 10-fold magnification on fluorescent microscope Axiophot (Zeiss) using Rhodamine Red/Texas Red filter with 5″ exposure.

Assay [3] can be described thus: Binding affinity of phage clones carrying SKVILFE-flanked fluorettes. The note with it: phage clone, SKVILFE-flanked fluorette.
The nature of assay [4]: Phage binding to Oregon Green 514 carrier beads, plaque assay of bound phage. The note with it: for Kd: phage clone, Oregon Green 514 carrier beads. The protocol:
(§1) These mutations may be important for increasing the overall affinity of the peptide fluorette-fluorophore interaction. We tested one of each of the phage from the secondary screens for increases in avidity (Table 3). PEG-purified TR401 phage, TRS311 phage or the amplified Ph.D.-12 phage display peptide library phage as a negative control (input 1.5×10^8-1.1×10^10 pfu with 2 to 5-fold increments) were incubated with 23.5 μl of BSA-blocked and washed Texas Red carrier beads in binding buffer (see above) in total volume 40 μl for 3 hr. Beads suspensions were centrifuged, the supernatants (unbound phage) were titrated and dissociation constants were measured via a standard linear Scatchard plot. For TR401 and TRS311 phage bound/unbound ratios were quite reliable (6.3-13.1 in the range of phage concentrations shown above). All binding experiments were performed in duplicate and titrations were performed in triplicate. […] For higher Kd, bound/unbound ratios became unreliable (=1).
(§2) Other PEG-purified phage (input 5×10^8-2.5×10^10 pfu with 2 to 5-fold increments) were bound to the respective fluorophore dye carriers essentially in the same manner as described above for Texas Red-specific phage. RhR401 and RhRS308, OG403 and OGS316, OG402 and FluS303 phage, were bound to the Rhodamine Red, Oregon Green 514 or Fluorescein carriers, respectively. Following binding the beads were quickly washed twice by 0.25 ml of TBS+0.1% Tween-20 and suspended in 10 ml TBS. 10 μl of suspension was mixed with ^−2×10^8 log-phase ER2537 cells and incubated 1 hr at 4° C. with slight shaking to allow phage adsorption. Several ten-fold dilutions of infected cells were mixed with noninfected ER2537 cells and plated in standard plaque assay (Sambrook et al., supra). All binding experiments and titrations were accomplished in duplicate. […] For all above phage pfu/particle ratio was in the range 0.4-0.5.

Assay [5] in a line: Phage-free fluorophore dye binding in solution (PEG precipitation, filter scan). Particulars: vs unselected library phage. The text has this: FIG. 3. Phage-fluorophore dye binding. Fluorophore dye-specific OG403, OG402, RhR401 and TR401 phage were bound to Oregon Green 514, Fluorescein, Rhodamine Red and Texas Red “free” dyes, respectively (see text). The normalized particle amounts of amplified Ph.D.-12 phage display peptide library (nonspecific phage) were bound in solution with the same dyes as controls. Phage-fluorophore dye complexes were precipitated three times by PEG to remove unbound dye and spotted to a nitrocellulose filter. The filter was scanned on the Storm 840 scanner (Molecular Dynamics). The presented data is from a single scan and image enhancements were done simultaneously on the complete set of dye binding results using NIH Image 1.59 software. Specific/nonspecific signal ratios were quantified by densitometry of spot images using NIH Image 1.59 software (see Materials and Methods for details). All binding experiments shown were completed in duplicate. Densitometry was carried out prior to contrast enhancement. Brightness and contrast values were modified to 50 and 65, respectively in Adobe Photoshop. Individual elements of the figure were arranged as a composite from the same original scan from which the binding ratios were determined.
Four activated derivatives of fluorophore dyes (see above) were quenched in 0.5M Tris-HCl, pH 8.7 and used as “free” dyes. Ten μl of PEG-purified and 300-fold concentrated phage TR401, RhR401, OG402, OG403 (1.3-1.8×10^12 phage particles; calculated from optical densities of the purified phage at 260 and 280 nm) in TBS+0.05% sodium azide buffer were separately mixed with an equal volume of 20 μM solution of the corresponding free dyes in the same buffer; mixtures were adjusted by Tween-20 to 0.1% and incubated for 3 hr. Phage-fluorophore dye complexes were precipitated three times by PEG-8000 in order to remove unbound dye and dissolved in 6.6 μl of TBS+0.05% sodium azide buffer. Finally, phage-fluorophore dye complexes (1 μl of each) were spotted to nitrocellulose filter and filter was scanned on the Storm 840 scanner (Molecular Dynamics) in Blue Fluorescence/Chemifluorescence mode with 200 μ pixel resolution. To determine nonspecific binding the normalized amounts of phage particles of amplified, unselected, and PEG-purified Ph.D.-12 phage display peptide library were separately incubated with the corresponding free dyes and treated in the same conditions. All binding experiments were accomplished in duplicate. Specific/nonspecific signal ratios were quantified by densitometry of spot images using “Measure” option of NIH Image 1.59 freeware package.

Assay [6] can be described thus: Phage binding to Rhodamine Red carrier beads, plaque assay of bound phage. The note with it: for Kd: phage clone, Rhodamine Red carrier beads. The protocol: as §1, §2
Assay [7] can be described thus: Cross-binding of Rhodamine Red-selected phage to the inappropriate dye carrier. Particulars: RhR-4 phage on Texas Red carrier, vs nonspecific phage background. The text has this:
(§3) We tested the binding specificity and excluded the possibility that the TR401 and RhR401 phage were selected against the polymer linker moiety rather than a fluorophore dye moiety of the dye carriers. The TR-4 and RhR-4 phage were cross-bound to Rhbdamine Red and Texas Red carriers, respectively. […] Thus the TR401 and RhR401 fluorettes are specific by this comparison for their respective conjugated dyes, despite the similarity of the compound core ring structures. Second, they had affinity for the corresponding conjugated fluorophore dyes rather than only a polymer linker moiety of Texas Red and Rhodamine Red carriers or other chemical features of the carriers themselves.

Assay [8] in a line: Cross-binding of Texas Red-selected phage to the inappropriate dye carrier. Particulars: TR-4 phage on Rhodamine Red carrier, vs nonspecific phage background.
From the text: as §3

A short description of assay [9]: Phage direct binding to Texas Red carrier beads, Scatchard plot. Particulars: phage clone (5 pIII-fluorette copies, avidity), 3 hr. The method, then:
as §1

A short description of assay [10]: Dye binding to peptide-coated cobalt Sepharose beads, fluorescence microscopy. Particulars: Oregon Green 514.
Test in assay [11]: as above
The note with it: Fluorescein.

Assay [12] in a line: Phage binding to Fluorescein carrier beads, plaque assay of bound phage. The note with it: for Kd: phage clone, Fluorescein carrier beads. The method, then:
as §1, §2

Assay [13] in a line: Binding affinity of synthetic constrained peptides to Texas Red. Particulars: for Kd: synthetic SKVILFE-flanked peptide; for fold more avid than linear TR401 and TRS311 peptides: synthetic constrained vs linear peptides.
The mark [14] stands for this setting: 10 μM peptide, 50 nM Texas Red, TBS, 1 hr RT.

Here are results for 20 substances from patent publication US6747135B1, “Fluorescent dye binding peptides” (The Board of Trustees for the Leland Stanford Junior …, priority 1998, dated 2004).

“Also recorded” adds a separate entry of the source.

As for “ASGSGASGSAGSGGGSAETVGGGHHHHHH [control peptide, reference compound]”, the “changes in peak excitation or emission” value in [1] is on record as “No detectable changes”. For the substance “DFLOWKLAROKPGGGSAETVGGGHHHHHH (DFLQWKLARQKPGGGSAETVGGGHHHHHH; fluorette) [PepTR406]”, the “changes in peak excitation or emission” value in assay [1] is on record as “No detectable changes”. Also, in [2], the “dye binding to peptide-coated beads” value is reported as “did not bind”. For EPMARPWERKQDR [TRP527], the Kd in [3] is more than 5 nM.

Substance GNQKCLQHNRCST [TRP518] registered a Kd in assay [3] of more than 5 nM. Still for that read-out and setting: with GTLSATRPYGRQW [TRP541] the figure was more than 5 nM. Consider HEWEYYWDWTAW [OGS316], for which the “Affinity increase (fold)” value in assay [4] (mutant fluorette phage vs parental OG403 phage) amounted to 2.7 fold. In [4], this substance came in with a Kd of 2.4 nM. On to HGWDYYWDWTAW [OG403], for which the “phage binding of free fluorophore dye in solution” value in assay [5] (free Oregon Green 514, 3 hr) is reported as “specifically bound”. Besides, in [4], the Kd was found to be 6.4 nM. In assay [6], IPHPPMYWTRVF [RhR401] returned a Kd of 23 nM. Further, the “phage binding of free fluorophore dye in solution” value in assay [5] (free Rhodamine Red, 3 hr) is given as “specifically bound”. Moreover, the “binding specificity, cross-binding to inappropriate dye carrier” value in assay [7] is “specific”. As for IPHRPMYWTPVF [RhRS308], the “Affinity increase (fold)” value in assay [6] (mutant fluorette phage vs parental RhR401 phage) was “not even marginally improved; also recorded: no increase”. Further, the Kd in assay [6] came to 21.5 nM. Consider KHVQYWTQMFYS [TR401], for which, in assay [5] (free Texas Red, 3 hr), the “phage binding of free fluorophore dye in solution” value is “specifically bound”. In assay [8], the “binding specificity, cross-binding to inappropriate dye carrier” value was “specific”. This substance also registered a Kd in [9] of 0.27 nM. Take “KPVOYWTOMFYTGGGSAETVGGGHHHHHH (KPVQYWTQMFYTGGGSAETVGGGHHHHHH; fluorette) [PepTRS311]”: the entries for the “dye binding to peptide-coated beads” value in assay [10], in assay [11] and in [2] were “bound to neither Oregon Green 514 nor Fluorescein”, “bound to neither Oregon Green 514 nor Fluorescein” and “significant binding”, respectively. The peak emission shift in assay [1] (setting [14]) worked out at 1.4 nm. The peak excitation shift entry in assay [1] (setting [14]) was “~+2.8 nm”. In addition, the Kd in assay [1] (calculated roughly from peak shifts, peptide 1.3-20 μM, Texas Red 50 nM, read-out: affinity of the peptide for the fluorophore) was 100 to 500 nM. Moreover, the “change in peak excitation position on reducing peptide concentration” value in assay [1] (peptide from 10 μM to 1.3 μM, Texas Red 50 nM) is “reduced slightly, but not completely”. Substance KPVQYWTQMFYT [TRS311] came in with a Kd in assay [9] of 0.09 nM. In assay [3], RTIWEPKEASNHT [TRP501] had a Kd of 0.08 nM.

For RWTWEPISE [TRP512], in assay [3], the Kd stood at 0.025 nM.

With SQTWSFPEH [TRP526], the Kd in [3] is more than 5 nM.

Substance WSKMGHTVT [TRP505] came in with a Kd in assay [3] of more than 5 nM.

On to YPNDFEWWEYYF [OG402], for which the “phage binding of free fluorophore dye in solution” value in [5] (free Fluorescein, 3 hr) is reported as “specifically bound”. Further, the Kd in assay [12] worked out at 17.4 nM. For YPNEFDWWDYYY [FluS303], the “Affinity increase (fold)” value in assay [12] (mutant fluorette phage vs parental OG402 phage) stood at 6.5 fold. This substance also yielded a Kd in [12] of 2.7 nM.

For the substance “synthetic SKVILFE-flanked Texas Red-specific peptide with His6 tag (SEQ ID NO:120) (GGGSKVILFEGPAGRTIWEPKEASNHTGAPGSKVILFEGGPGHHHHHH) [TRP501 peptide]”, in assay [13], the Kd was approximately 200 nM; the “fold more avid than linear TR401 and TRS311 peptides” value is recorded as “≈ 8 fold”. For “synthetic SKVILFE-flanked Texas Red-specific peptide with His6 tag (SEQ ID NO:121) (GGGSKVILFEGPAGRWTWEPISEGAPGSKVILFEGGPGHHHHHH) [TRP512 peptide]”, in [13], the Kd is approximately 10 nM; the “fold more avid than linear TR401 and TRS311 peptides” value is “≈ 160 fold”.
